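Cultured in 96-well plates, cells were exposed to test compound for 48 hours across five concentrations. Abbreviation: GI50, concentration required for 50% inhibition of growth. The concentration for full growth arrest is given as TGI.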
What was measured:
Experiment in all cases: NCI-60 cell line screen, 48 h
786-0 renal = tested on: 786-0 renal
A498 renal = tested on: A498 renal
A549 NSCLC = tested on: A549 NSCLC
ACHN renal = tested on: ACHN renal
BT-549 breast = tested on: BT-549 breast
CAKI-1 renal = tested on: CAKI-1 renal
CCRF-CEM leukemia = tested on: CCRF-CEM leukemia
COLO 205 colon = tested on: COLO 205 colon
DU-145 prostate = tested on: DU-145 prostate
EKVX NSCLC = tested on: EKVX NSCLC
HCC-2998 colon = tested on: HCC-2998 colon
HCT-116 colon = tested on: HCT-116 colon
HCT-15 colon = tested on: HCT-15 colon
HL-60(TB) leukemia = tested on: HL-60(TB) leukemia
HOP-62 NSCLC = tested on: HOP-62 NSCLC
HOP-92 NSCLC = tested on: HOP-92 NSCLC
HS 578T breast = tested on: HS 578T breast
HT29 colon = tested on: HT29 colon
IGROV1 ovarian = tested on: IGROV1 ovarian
K-562 leukemia = tested on: K-562 leukemia
KM12 colon = tested on: KM12 colon
LOX IMVI melanoma = tested on: LOX IMVI melanoma
M14 melanoma = tested on: M14 melanoma
MALME-3M melanoma = tested on: MALME-3M melanoma
MCF7 breast = tested on: MCF7 breast
MDA-MB-231 breast = tested on: MDA-MB-231 breast
MDA-MB-435 = tested on: MDA-MB-435
MOLT-4 leukemia = tested on: MOLT-4 leukemia
NCI-H226 lung = tested on: NCI-H226 lung
NCI-H23 lung = tested on: NCI-H23 lung
NCI-H460 lung = tested on: NCI-H460 lung
NCI-H522 lung = tested on: NCI-H522 lung
NCI/ADR-RES ovarian = tested on: NCI/ADR-RES ovarian
OVCAR-4 ovarian = tested on: OVCAR-4 ovarian
OVCAR-5 ovarian = tested on: OVCAR-5 ovarian
OVCAR-8 ovarian = tested on: OVCAR-8 ovarian
PC-3 prostate = tested on: PC-3 prostate
RPMI-8226 leukemia = tested on: RPMI-8226 leukemia
RXF 393 renal = tested on: RXF 393 renal
SF-268 CNS = tested on: SF-268 CNS
SF-295 CNS = tested on: SF-295 CNS
SF-539 CNS = tested on: SF-539 CNS
SK-MEL-2 melanoma = tested on: SK-MEL-2 melanoma
SK-MEL-28 melanoma = tested on: SK-MEL-28 melanoma
SK-MEL-5 melanoma = tested on: SK-MEL-5 melanoma
SK-OV-3 ovarian = tested on: SK-OV-3 ovarian
SN12C renal = tested on: SN12C renal
SNB-19 CNS = tested on: SNB-19 CNS
SNB-75 CNS = tested on: SNB-75 CNS
SR leukemia = tested on: SR leukemia
SW-620 colon = tested on: SW-620 colon
T-47D breast = tested on: T-47D breast
TK-10 renal = tested on: TK-10 renal
U251 CNS = tested on: U251 CNS
UACC-257 melanoma = tested on: UACC-257 melanoma
UACC-62 melanoma = tested on: UACC-62 melanoma
UO-31 renal = tested on: UO-31 renal

SMILES: CCCCCc1ccc(S(=O)(=O)Nc2cc(-c3csc(NC(=O)CN4CCN(C)CC4)n3)ccc2N2CCN(C)CC2)cc1
- GI50 (786-0 renal): 0.826 µM
- TGI (786-0 renal): 1.57 µM
- GI50 (A498 renal): 2.9 µM
- TGI (A498 renal): 9.03 µM
- GI50 (A549 NSCLC): 1.25 µM
- TGI (A549 NSCLC): 3.72 µM
- GI50 (ACHN renal): 1.14 µM
- TGI (ACHN renal): 2.64 µM
- GI50 (BT-549 breast): 4.07 µM
- TGI (BT-549 breast): 11.1 µM
- GI50 (CAKI-1 renal): 0.895 µM
- TGI (CAKI-1 renal): 1.97 µM
- GI50 (CCRF-CEM leukemia): 0.792 µM
- TGI (CCRF-CEM leukemia): 3.38 µM
- GI50 (COLO 205 colon): 0.924 µM
- TGI (COLO 205 colon): 1.86 µM
- GI50 (DU-145 prostate): 1.52 µM
- TGI (DU-145 prostate): 4.64 µM
- GI50 (EKVX NSCLC): 1.97 µM
- TGI (EKVX NSCLC): 7.47 µM
- GI50 (HCC-2998 colon): 0.877 µM
- TGI (HCC-2998 colon): 1.78 µM
- GI50 (HCT-116 colon): 0.735 µM
- TGI (HCT-116 colon): 1.49 µM
- GI50 (HCT-15 colon): 0.733 µM
- TGI (HCT-15 colon): 1.62 µM
- GI50 (HL-60(TB) leukemia): 1 µM
- TGI (HL-60(TB) leukemia): 2.35 µM
- GI50 (HOP-62 NSCLC): 0.954 µM
- TGI (HOP-62 NSCLC): 1.99 µM
- GI50 (HOP-92 NSCLC): 0.909 µM
- TGI (HOP-92 NSCLC): 3.41 µM
- GI50 (HS 578T breast): 1.05 µM
- TGI (HS 578T breast): 2.42 µM
- GI50 (HT29 colon): 0.872 µM
- TGI (HT29 colon): 1.81 µM
- GI50 (IGROV1 ovarian): 1.12 µM
- TGI (IGROV1 ovarian): 2.61 µM
- GI50 (K-562 leukemia): 0.166 µM
- TGI (K-562 leukemia): 5.53 µM
- GI50 (KM12 colon): 1.16 µM
- TGI (KM12 colon): 2.67 µM
- GI50 (LOX IMVI melanoma): 0.842 µM
- TGI (LOX IMVI melanoma): 1.61 µM
- GI50 (M14 melanoma): 0.895 µM
- TGI (M14 melanoma): 1.71 µM
- GI50 (MALME-3M melanoma): 0.879 µM
- TGI (MALME-3M melanoma): 1.67 µM
- GI50 (MCF7 breast): 0.893 µM
- TGI (MCF7 breast): 1.84 µM
- GI50 (MDA-MB-231 breast): 0.913 µM
- TGI (MDA-MB-231 breast): 1.83 µM
- GI50 (MDA-MB-435): 0.91 µM
- TGI (MDA-MB-435): 1.76 µM
- GI50 (MOLT-4 leukemia): 1.12 µM
- TGI (MOLT-4 leukemia): 3.74 µM
- GI50 (NCI-H226 lung): 3 µM
- TGI (NCI-H226 lung): 9.35 µM
- GI50 (NCI-H23 lung): 1.4 µM
- TGI (NCI-H23 lung): 4.37 µM
- GI50 (NCI-H460 lung): 0.966 µM
- TGI (NCI-H460 lung): 1.86 µM
- GI50 (NCI-H522 lung): 0.909 µM
- TGI (NCI-H522 lung): 1.72 µM
- GI50 (NCI/ADR-RES ovarian): 1.38 µM
- TGI (NCI/ADR-RES ovarian): 3.96 µM
- GI50 (OVCAR-4 ovarian): 1.01 µM
- TGI (OVCAR-4 ovarian): 2.34 µM
- GI50 (OVCAR-5 ovarian): 1.25 µM
- TGI (OVCAR-5 ovarian): 3.31 µM
- GI50 (OVCAR-8 ovarian): 0.966 µM
- TGI (OVCAR-8 ovarian): 1.95 µM
- GI50 (PC-3 prostate): 1.2 µM
- TGI (PC-3 prostate): 3.49 µM
- GI50 (RPMI-8226 leukemia): 1.03 µM
- TGI (RPMI-8226 leukemia): 2.66 µM
- GI50 (RXF 393 renal): 0.792 µM
- TGI (RXF 393 renal): 1.59 µM
- GI50 (SF-268 CNS): 0.941 µM
- TGI (SF-268 CNS): 2.01 µM
- GI50 (SF-295 CNS): 0.956 µM
- TGI (SF-295 CNS): 1.93 µM
- GI50 (SF-539 CNS): 0.86 µM
- TGI (SF-539 CNS): 1.62 µM
- GI50 (SK-MEL-2 melanoma): 0.853 µM
- TGI (SK-MEL-2 melanoma): 1.61 µM
- GI50 (SK-MEL-28 melanoma): 0.926 µM
- TGI (SK-MEL-28 melanoma): 1.69 µM
- GI50 (SK-MEL-5 melanoma): 0.9 µM
- TGI (SK-MEL-5 melanoma): 1.64 µM
- GI50 (SK-OV-3 ovarian): 1.11 µM
- TGI (SK-OV-3 ovarian): 2.67 µM
- GI50 (SN12C renal): 1.06 µM
- TGI (SN12C renal): 2.37 µM
- GI50 (SNB-19 CNS): 1.38 µM
- TGI (SNB-19 CNS): 4.11 µM
- GI50 (SNB-75 CNS): 2.11 µM
- TGI (SNB-75 CNS): 4.48 µM
- GI50 (SR leukemia): 0.173 µM
- TGI (SR leukemia): 0.93 µM
- GI50 (SW-620 colon): 0.853 µM
- TGI (SW-620 colon): 1.64 µM
- GI50 (T-47D breast): 0.829 µM
- TGI (T-47D breast): 1.62 µM
- GI50 (TK-10 renal): 2.92 µM
- TGI (TK-10 renal): 7.14 µM
- GI50 (U251 CNS): 0.834 µM
- TGI (U251 CNS): 1.65 µM
- GI50 (UACC-257 melanoma): 0.909 µM
- TGI (UACC-257 melanoma): 1.71 µM
- GI50 (UACC-62 melanoma): 0.912 µM
- TGI (UACC-62 melanoma): 1.74 µM
- GI50 (UO-31 renal): 0.818 µM
- TGI (UO-31 renal): 1.67 µM

From PubChem BioAssay (NCI)
